pIC50: −log10 of the molar value.
target: T1, human kinase Mps-1 (Homo sapiens, UniProt P33981); experiment: Mps-1 kinase assay (TR-FRET); assay type: biochemical; settings: N-terminally GST-tagged human full length recombinant Mps-1; 10 µM ATP; 1 µM peptide substrate; 15 min pre-incubation, 60 min reaction at 22°C; read-out: Mps1 IC50
T1 construct: N-terminally GST-tagged human full length recombinant Mps-1 kinase; purchased Invitrogen, Karslruhe, Germany PV4071
T1 sequence (P33981 1-857): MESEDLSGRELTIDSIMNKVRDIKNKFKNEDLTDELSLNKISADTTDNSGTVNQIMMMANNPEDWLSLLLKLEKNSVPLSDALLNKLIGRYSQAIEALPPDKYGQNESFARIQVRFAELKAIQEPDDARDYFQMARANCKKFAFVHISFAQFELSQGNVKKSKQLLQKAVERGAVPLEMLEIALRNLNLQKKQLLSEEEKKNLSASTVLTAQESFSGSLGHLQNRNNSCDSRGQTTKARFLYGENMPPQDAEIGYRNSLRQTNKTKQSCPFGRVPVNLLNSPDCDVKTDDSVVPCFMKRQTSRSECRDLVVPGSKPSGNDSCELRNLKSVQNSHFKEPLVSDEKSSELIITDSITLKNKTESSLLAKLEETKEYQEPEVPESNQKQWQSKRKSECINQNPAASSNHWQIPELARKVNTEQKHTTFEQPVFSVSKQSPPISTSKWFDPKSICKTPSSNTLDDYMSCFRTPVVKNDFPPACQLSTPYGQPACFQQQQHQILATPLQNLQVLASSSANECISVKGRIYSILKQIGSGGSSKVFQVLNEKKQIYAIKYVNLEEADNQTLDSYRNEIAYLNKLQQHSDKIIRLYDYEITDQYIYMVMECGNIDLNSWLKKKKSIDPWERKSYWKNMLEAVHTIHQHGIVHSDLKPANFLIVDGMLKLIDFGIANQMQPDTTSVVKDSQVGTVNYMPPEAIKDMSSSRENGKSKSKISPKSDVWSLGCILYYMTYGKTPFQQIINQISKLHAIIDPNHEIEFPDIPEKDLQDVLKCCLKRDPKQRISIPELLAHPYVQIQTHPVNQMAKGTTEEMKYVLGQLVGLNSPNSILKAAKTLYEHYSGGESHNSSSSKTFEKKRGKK
Experimental: The human kinase Mps-1 phosphorylates a biotinylated substrate peptide. Detection of the phosphorylated product is achieved by time-resolved fluorescence resonance energy transfer (TR-FRET) from Europium-labelled anti-phospho-Serine/Threonine antibody as donor to streptavidin labelled with cross-linked allophycocyanin (SA-XLent) as acceptor. Compounds are tested for their inhibition of the kinase activity.
N-terminally GST-tagged human full length recombinant Mps-1 kinase (purchased from Invitrogen, Karslruhe, Germany, cat. no PV4071) was used. As substrate for the kinase reaction a biotinylated peptide of the amino-acid sequence PWDPDDADITEILG (C-terminus in amide form, purchased from Biosynthan GmbH, Berlin) was used.
For the assay 50 nL of a 100-fold concentrated solution of the test compound in DMSO was pipetted into a black low volume 384well microtiter plate (Greiner Bio-One, Frickenhausen, Germany), 2 µl of a solution of Mps-1 in assay buffer [0.1 mM sodium-ortho-vanadate, 10 mM MgCl2, 2 mM DTT, 25 mM Hepes pH 7.7, 0.05% BSA, 0.001% Pluronic F-127] were added and the mixture was incubated for 15 min at 22°C to allow pre-binding of the test compounds to Mps-1 before the start of the kinase reaction. […]
The resulting mixture was incubated 1 h at 22°C to allow the binding of the phosphorylated peptide to the anti-phospho(Ser/Thr)-Europium-antibody. Subsequently the amount of phosphorylated substrate was evaluated by measurement of the resonance energy transfer from the Europium-labelled anti-phospho(Ser/Thr) antibody to the Streptavidin-XLent. Therefore, the fluorescence emissions at 620 nm and 665 nm after excitation at 350 nm was measured in a Viewlux TR-FRET reader (PerkinElmer LAS, Rodgau-Jugesheim, Germany). The "blank-corrected normalized ratio" ( a Viewlux specific readout, similar to the traditional ratio of the emissions at 665 nm and at 622 nm, in which blank and Eudonor crosstalk are subtracted from the 665 nm signal before the ratio is calculated) was taken as the measure for the amount of phosphorylated substrate. […]

SMILES | pIC50
CC(C)CNc1nc(-c2ccccc2)cn2c(-c3ccc(C(=O)NC4CC4)cc3)c(CO)nc12 [Example 1-1, N-cyclopropyl-4-[2-(hydroxymethyl)-8-(isobutylamino)-6-phenylimidazo[1,2-a]pyrazin-3-yl]benzamide] | 6.75
CC(C)CNc1nc(-c2ccccc2)cn2c(-c3ccc(C(=O)NC4CC4)cc3)c(N)nc12 [Example 4-1, 4-[2-Amino-8-(isobutylamino)-6-phenylimidazo[1,2-a]pyrazin-3-yl]-N-cyclopropylbenzamide] | 7.80
COC(=O)c1nc2c(NCC(C)C)nc(-c3ccccc3)cn2c1-c1ccc(C(=O)NC2CC2)cc1 [Example 3-1, Methyl 3-[4-(cyclopropylcarbamoyl)phenyl]-8-[(2-methylpropyl)amino]-6-phenylimidazo[1,2-a]pyrazine-2-carboxylate] | 5.37
